Legend:
[1] = system: human cells; conditions: cited from earlier work
[2] = system: Salmonella typhimurium TA 100; test: Mutagenicity and antimutagenic effect, Salmonella test (Ames), preincubation method, revertant colony count; conditions: Salmonella typhimurium TA 100 (histidine-requiring), 48 h, pH 7.4
Description: Histidine-requiring Salmonella typhimurium TA 100 (hereunder S. TA 100) was used.
Instant coffee powder was dissolved in distilled water. Predetermined amounts of wheat germ preparations were also dissolved in distilled water, and 50 µl of each solution was mixed with an equal amount of the aqueous coffee solution.
Roasted coffee beans (20 g) were extracted with hot distilled water (250 ml), and the extract was filtered through coffee filter paper No. 12 manufactured by Kalita Co., Ltd. The extract was freeze-dried, and after measuring the weight of the dry product, it was dissolved in distilled water. Predetermined amounts of wheat germ preparations were also dissolved in distilled water, and 50 µl of each solution was mixed with an equal amount of the aqueous solution of coffee concentrate. […]
To 100 µl of each of the samples prepared in (iii)(a) to (f), 500 µl of 0.1 M sodium phosphate buffer (pH 7.4) plus 100 µl of a culture of S. TA 100 strain were added. […] After incubation at 37°C for 48 hours, the number of colonies forming on the plate was counted as revertants. The percent inhibition of mutagenicity can be calculated by the following formula, if necessary: [formula]
A powder of extracted coffee beans (15 mg) as prepared by the method shown in I)(iii)(b) was dissolved in distilled water to make 50 µl. […] The mutagenicity of each mixture was determined by the method shown in I)(i).

[3] = system: mouse deodenum; conditions: 0.1 % of hydrogen peroxide; cited from earlier work
[4] = system: Neuros^pera crassa; conditions: cited from earlier work

For OO [Hydrogen peroxide, hydrogen peroxide], the “clastogenicity to human cells” value [1] is given as “clastogenic”, the “mutagenicity to S. TA 100” value [2] is given as 160 revertants/10^8 survivors/Pmole and the carcinogenicity [3] is given as “proved to cause malignant tumors”. The “mutagenicity to Neurospora crassa” value [4] was “mutagenic”.

Source: EP0124891A2, “Antimutagenic agent and method of inactivating the mutagenicity of foods and beverages by using said agent” (SUNTORY LIMITED, priority 1983, dated 1984)
